Measurements published in patent US9212139B2, “Aryl substituted indoles and their use as blockers of sodium channels” (Purdue Pharma, L.P., priority 2010, dated 2015).
Like-named read-outs stand apart in the source and are kept apart here.

Molecular target: human Nav1.7 (Homo sapiens (Human), UniProt Q15858)
Assay: FLIPR or FLIPR TETRA sodium dye assay with KCl and test article pre-incubation
Format: cell-based
Source text: For dominant selection of the Nav1.7-expressing clones, the expression plasmid co-expressed the neomycin resistance gene. […] Recombinant beta and gamma subunits were not introduced into this cell line. Additional cell lines expressing recombinant Nav1.7 cloned from other species can also be used, alone or in combination with various beta subunits, gamma subunits or chaperones.
Cell maintenance: Unless otherwise noted, cell culture reagents were purchased from Mediatech of Herndon, Va. The recombinant Nav1.7/HEK293 cells were routinely cultured in growth medium consisting of Dulbecco's […] containing 10% fetal bovine serum (FBS, Hyclone, Thermo Fisher Scientific, Logan, Utah), 100 U/mL penicillin, […], 2-4 mM L-glutamine, and […]. For natural, non-recombinant cell lines, the selective antibiotic was omitted, and additional media formulations can be applied as needed.
The intensity of this emission, but not the wavelength range, is increased when the dye is exposed to Na^+ ions, which it can bind with partial selectivity. Cells expressing Nav1.7 or other sodium channels were loaded with the CoroNa™ Green dye immediately in advance of the fluorescence assay, and then, after agonist stimulation, the mobilization of Na^+ ions was detected as the Na^+ ions flowed from the extracellular fluid into the cytoplasm through the activated sodium channel pores. The dye was stored in the dark as a lyophilized powder, and then an aliquot was dissolved immediately before the cell loading procedure, according to the instructions of the manufacturer to a stock concentration of 10 mM in DMSO. It was then diluted in the assay buffer to a 4× concentrated working solution, so that the final concentration of dye in the cell loading buffer was 5 μM.
These scorpion toxins inhibit the fast inactivation of their cognate target channels. Stock solutions of the agonists were prepared to 40 mM in DMSO (veratridine) and 1 mg/mL in dH2O (scorpion venom), and then diluted to make a 4× or 2× stock (depending on the particular assay) in assay buffer, the final concentration being 100 μM (veratridine) and 10 μg/mL (scorpion venom). Both of the agonists were purchased from Sigma Aldrich, St. Louis, Mo.
Test Compounds: Test compounds were dissolved in DMSO to yield 10 mM stock solutions. […] If a particular test article appeared to be especially potent, then the concentration curve was adjusted, e.g., to 10-fold lower concentrations, in order to perform the dose-response in a more relevant concentration range. Compound dilutions were added during the dye-loading and pre-stimulation step, and then again during the fluorescence assay, early in the kinetic read.
Data Analysis: The data were analyzed according to methods known to those skilled in the art or using the GraphPad® Prism 4.0 Program (available from GraphPad Software, San Diego, Calif.) to determine the IC50 value for the test article. At least one standard reference compound was evaluated during each experiment.
FLIPR® or FLIPR^TETRA® sodium dye assay with KCl and test article pre-incubation: Cells were prepared by plating the recombinant HEK293 cells or other host cells expressing either recombinant or non-recombinant, native, Nav1.7 alpha subunit, alone or in combination with various beta and gamma subunits at a density of ˜40,000 cells/well into a 96-well black, clear-bottom, PDL-coated plate. The assay can be adapted to 384-well or 1,536-well format, if desired, using proportionately less cells and media. […] For counter-screens of other voltage-gated sodium channels, the procedure was very similar, though optimal densities of cells, media and subsequent assay components can be fine-tuned for the particular cell line or isoform.

[1] = sodium dye assay with KCl, recombinant human Nav1.7 in HEK293 cells, value ± SEM
[2] = read-out: FLIPR Nav1.7 IC50 (μM) ± SEM

human Nav1.7, sequence (Q15858 other isoform, or with tags, fused parts or gaps): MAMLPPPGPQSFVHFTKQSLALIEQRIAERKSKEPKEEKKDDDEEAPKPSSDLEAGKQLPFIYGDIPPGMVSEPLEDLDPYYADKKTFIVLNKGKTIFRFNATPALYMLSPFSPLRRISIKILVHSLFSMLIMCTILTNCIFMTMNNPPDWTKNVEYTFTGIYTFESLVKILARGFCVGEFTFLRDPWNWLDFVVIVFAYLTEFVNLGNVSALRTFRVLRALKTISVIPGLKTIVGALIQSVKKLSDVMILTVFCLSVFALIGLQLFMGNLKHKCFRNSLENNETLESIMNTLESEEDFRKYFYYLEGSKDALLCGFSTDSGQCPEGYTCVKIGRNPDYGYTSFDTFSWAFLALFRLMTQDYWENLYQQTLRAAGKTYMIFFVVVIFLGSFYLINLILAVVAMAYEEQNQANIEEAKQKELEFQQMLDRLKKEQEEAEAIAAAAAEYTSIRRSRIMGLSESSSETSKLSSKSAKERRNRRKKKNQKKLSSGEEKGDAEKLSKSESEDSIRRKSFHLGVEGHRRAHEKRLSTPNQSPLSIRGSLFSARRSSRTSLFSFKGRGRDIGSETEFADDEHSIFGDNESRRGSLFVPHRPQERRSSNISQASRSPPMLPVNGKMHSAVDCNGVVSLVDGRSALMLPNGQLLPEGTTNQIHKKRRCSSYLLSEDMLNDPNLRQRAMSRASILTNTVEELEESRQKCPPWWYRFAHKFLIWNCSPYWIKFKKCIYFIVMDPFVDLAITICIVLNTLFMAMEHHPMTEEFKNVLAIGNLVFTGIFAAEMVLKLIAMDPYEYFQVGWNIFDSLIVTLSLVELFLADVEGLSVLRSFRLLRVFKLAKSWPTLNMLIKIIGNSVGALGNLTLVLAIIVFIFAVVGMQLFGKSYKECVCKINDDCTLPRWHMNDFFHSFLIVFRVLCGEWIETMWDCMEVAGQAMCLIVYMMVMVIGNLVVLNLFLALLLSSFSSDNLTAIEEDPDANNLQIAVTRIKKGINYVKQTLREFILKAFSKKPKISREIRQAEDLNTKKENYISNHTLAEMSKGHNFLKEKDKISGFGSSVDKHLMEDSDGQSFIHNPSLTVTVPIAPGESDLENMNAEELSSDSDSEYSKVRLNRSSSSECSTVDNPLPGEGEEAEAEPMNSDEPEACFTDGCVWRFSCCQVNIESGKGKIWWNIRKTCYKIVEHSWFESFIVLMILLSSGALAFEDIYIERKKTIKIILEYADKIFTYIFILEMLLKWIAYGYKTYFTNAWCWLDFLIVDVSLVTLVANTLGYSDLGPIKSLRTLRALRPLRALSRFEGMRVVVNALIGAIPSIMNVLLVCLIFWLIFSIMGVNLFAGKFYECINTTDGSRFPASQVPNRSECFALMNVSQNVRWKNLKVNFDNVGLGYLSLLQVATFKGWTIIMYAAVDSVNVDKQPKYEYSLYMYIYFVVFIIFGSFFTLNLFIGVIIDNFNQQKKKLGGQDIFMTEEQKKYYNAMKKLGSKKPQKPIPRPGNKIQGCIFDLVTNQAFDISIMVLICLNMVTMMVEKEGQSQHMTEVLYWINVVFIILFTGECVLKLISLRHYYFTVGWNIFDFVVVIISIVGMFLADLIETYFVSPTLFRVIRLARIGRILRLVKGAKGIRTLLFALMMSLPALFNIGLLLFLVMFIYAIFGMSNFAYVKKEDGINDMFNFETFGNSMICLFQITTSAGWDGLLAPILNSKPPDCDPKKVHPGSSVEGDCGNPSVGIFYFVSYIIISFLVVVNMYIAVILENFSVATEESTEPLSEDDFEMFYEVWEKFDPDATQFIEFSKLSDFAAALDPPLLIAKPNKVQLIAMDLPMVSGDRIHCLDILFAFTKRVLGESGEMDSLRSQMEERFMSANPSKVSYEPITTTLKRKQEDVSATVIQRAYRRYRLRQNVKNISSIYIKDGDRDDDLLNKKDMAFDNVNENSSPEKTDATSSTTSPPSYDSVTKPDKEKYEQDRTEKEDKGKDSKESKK

Row | SMILES | IC50 [1] [µM] | IC50 [2] [µM]
1 | CCOC(=O)C(N)Cc1c[nH]c2ccc(-c3ccc(Oc4ccccc4)cc3)cc12 (centres unmarked) [Compound 7, 2-Amino-3-[5-(4-phenoxyphenyl)-1H-indol-3-yl]propionic acid ethyl ester] | 0.481 ± 0.042 | 
2 | NC(Cc1c[nH]c2ccc(-c3ccc(Oc4ccccc4)cc3)cc12)C(=O)O (centres unmarked) [Compound 9, 2-Amino-3-[5-(4-phenoxyphenyl)-1H-indol-3-yl]propionic acid] | > 20 | 
3 | NC(=O)C(N)Cc1c[nH]c2cc(-c3ccc(Oc4ccccc4)cc3)ccc12 (centres unmarked) [Compound 15, 2-Amino-3-[6-(4-phenoxyphenyl)-1H-indol-3-yl]propionamide] | 2.05 ± 0.094 | 
4 | CCOC(=O)C(Cc1c[nH]c2cc(-c3ccc(Oc4ccccc4)cc3)ccc12)NC(=O)OC(C)(C)C (centres unmarked) [Compound 16, 2-tert-Butoxycarbonylamino-3-[6-(4-phenoxyphenyl)-1H-indol-3-yl]-propionic acid ethyl ester] | 2.52 ± 0.663 | 
5 | CC(C)(C)OC(=O)NC(Cc1c[nH]c2cc(-c3ccc(Oc4ccccc4)cc3)ccc12)C(=O)O (centres unmarked) [Compound 17, 2-tert-Butoxycarbonylamino-3-[6-(4-phenoxyphenyl)-1H-indol-3-yl]-propionic acid] | 1.93 ± 0.228 | 
6 | NC(=O)C(N)Cc1c(-c2ccc(Oc3ccccc3)cc2)[nH]c2ccccc12 (centres unmarked) [Compound 28, 2-Amino-3-[2-(4-phenoxyphenyl)-1H-indol-3-yl]propionamide] | 0.24 ± 0.023 | 
7 | NC(Cc1cn(-c2ccc(Oc3ccccc3)cc2)c2ccccc12)C(=O)NCCO (centres unmarked) [Compound 37, 2-Amino-N-(2-hydroxyethyl)-3-[1-(4-phenoxyphenyl)-1H-indol-3-yl]-propionamide] | 0.364 ± 0.112 | 
8 | CS(=O)(=O)NC(Cc1cn(-c2ccc(Oc3ccccc3)cc2)c2ccccc12)C(N)=O (centres unmarked) [Compound 39, 2-Methanesulfonylamino-3-[1-(4-phenoxyphenyl)-1H-indol-3-yl]propionamide] | 1.01 ± 0.162 | 
9 | N#Cc1cc(Oc2ccc(-n3cc(C(O)CO)c4ccccc43)cc2)ccc1C(F)(F)F (centres unmarked) [Compound 51, 5-{4-[3-(1,2-Dihydroxyethyl)-1H-indol-1-yl]phenoxy}-2-(trifluoromethyl)benzonitrile] |  | 0.26 ± 0.009
10 | N#Cc1ccc(Oc2ccc(-n3cc(C[C@H](O)CO)c4ccccc43)cc2)cc1 [Compound 76, (S)-4-(4-(3-(2,3-Dihydroxypropyl)-1H-indol-1-yl)phenoxy)benzonitrile] |  | 0.501 ± 0.089
11 | N#Cc1ccc(Oc2ccc(-n3cc(C[C@@H](O)CO)c4ccccc43)cc2)cc1 [Compound 77, (R)-4-(4-(3-(2,3-Dihydroxypropyl)-1H-indol-1-yl)phenoxy)benzonitrile] |  | 0.48 ± 0.087
12 | OC[C@@H](O)Cc1cn(-c2ccc(Oc3ccc(C(F)(F)F)cc3)cc2)c2ccccc12 [Compound 80, (S)-3-(1-(4-(4-(Trifluoromethyl)phenoxy)phenyl)-1H-indol-3-yl)propane-1,2-diol] | 0.524 ± 0.085 | 
13 | OC[C@@H](O)Cc1cn(-c2ccc(Oc3ccc(C(F)(F)F)cn3)cc2)c2ccccc12 [Compound 83, (S)-3-(1-(4-((5-(Trifluoromethyl)pyridin-2-yl)oxy)phenyl)-1H-indol-3-yl)propane-1,2-diol] | 0.257 ± 0.067 | 
14 | CN(c1ccc(F)cc1)S(=O)(=O)c1ccc(-n2cc(C[C@H](O)CO)c3ccccc32)cc1 [Compound 90, (S)-4-(3-(2,3-Dihydroxypropyl)-1H-indol-1-yl)-N-(4-fluorophenyl)-N-methylbenzenesulfonamide] | 0.865 ± 0.058 | 
15 | O=S(=O)(Nc1ccc(F)cc1)c1ccc(-n2cc(C[C@H](O)CO)c3ccccc32)cc1 [Compound 92, (S)-4-(3-(2,3-Dihydroxypropyl)-1H-indol-1-yl)-N-(4-fluorophenyl)benzenesulfonamide] | 1.89 ± 0.164 | 
16 | N#Cc1ccc2c(C[C@H](O)CO)cn(-c3ccc(Oc4ccc(F)cc4)cc3)c2c1 [Compound 105, (S)-3-(2,3-Dihydroxypropyl)-1-(4-(4-fluorophenoxy)phenyl)-1H-indole-6-carbonitrile] | 1.65 ± 0.438 | 

Row | SMILES | IC50 [1] [µM] | IC50 [2] [µM]
17 | N#Cc1ccc2c(c1)c(C[C@H](O)CO)cn2-c1ccc(Oc2ccc(F)cc2)cc1 [Compound 110, (S)-3-(2,3-Dihydroxypropyl)-1-(4-(4-fluorophenoxy)phenyl)-1H-indole-5-carbonitrile] | 2.45 ± 0.542 | 
18 | N#Cc1cccc2c(C[C@H](O)CO)cn(-c3ccc(Oc4ccc(F)cc4)cc3)c12 [Compound 115, (S)-3-(2,3-Dihydroxypropyl)-1-(4-(4-fluorophenoxy)phenyl)-1H-indole-7-carbonitrile] | 0.474 ± 0.133 | 
19 | N#Cc1cccc2c1c(C[C@H](O)CO)cn2-c1ccc(Oc2ccc(F)cc2)cc1 [Compound 120, (S)-3-(2,3-Dihydroxypropyl)-1-(4-(4-fluorophenoxy)phenyl)-1H-indole-4-carbonitrile] | 0.262 ± 0.066 | 
20 | NC(=O)c1ccc2c(C[C@H](O)CO)cn(-c3ccc(Oc4ccc(F)cc4)cc3)c2c1 [Compound 123, (S)-3-(2,3-Dihydroxypropyl)-1-(4-(4-fluorophenoxy)phenyl)-1H-indole-6-carboxamide] | 4.92 ± 0.822 | 
21 | O=C(O)c1cccc2c1c(C[C@H](O)CO)cn2-c1ccc(Oc2ccc(F)cc2)cc1 [Compound 129, (S)-3-(2,3-Dihydroxypropyl)-1-(4-(4-fluorophenoxy)phenyl)-1H-indole-4-carboxylic acid] | 3.33 ± 0.495 | 
22 | N#Cc1cc(Oc2ccc(-n3cc(C[C@@H](O)CO)c4c(C(O)CO)cccc43)cc2)ccc1C(F)(F)F (stereo partly drawn) [Compound 139, 5-(4-(4-(1,2-Dihydroxyethyl)-3-((R)-2,3-dihydroxypropyl)-1H-indol-1-yl)phenoxy)-2-(trifluoromethyl)benzonitrile] | > 20 | 
23 | N#Cc1cc(Oc2ccc(-n3cc(C[C@H](O)CO)c4c(C(O)CO)cccc43)cc2)ccc1C(F)(F)F (stereo partly drawn) [Compound 141, 5-(4-(4-(1,2-Dihydroxyethyl)-3-((S)-2,3-dihydroxypropyl)-1H-indol-1-yl)phenoxy)-2-(trifluoromethyl)benzonitrile] | 1.97 ± 0.494 | 
24 | NC(=O)c1nn(-c2ccc(Oc3ccccc3)cc2)c2ccccc12 [Compound 145, 1-(4-Phenoxyphenyl)-1H-indazole-3-carboxamide] |  | 0.326 ± 0.043
25 | O=C(NO)c1nn(-c2ccc(Oc3ccccc3)cc2)c2ccccc12 [Compound 146, N-Hydroxy-1-(4-phenoxyphenyl)-1H-indazole-3-carboxamide] |  | 8.07 ± 0.484
26 | OCc1cn(-c2ccc(Oc3ccc(C(F)(F)F)cc3)cc2)c2cnccc12 [Compound 164, (1-(4-(4-(Trifluoromethyl)phenoxy)phenyl)-1H-pyrrolo[2,3-c]pyridin-3-yl)methanol] | 0.345 ± 0.027 | 
27 | N#Cc1ccc(Oc2ccc(-n3cc(C[C@H](O)CO)c4ccncc43)cc2)cc1 [Compound 170] | 1.38 ± 0.542 | 
28 | CCN(CC)CCn1ccc2cc(-c3ccc(Oc4ccc(F)cc4)cc3)ccc21 [Compound 177, N,N-Diethyl-2-(5-(4-(4-fluorophenoxy)phenyl)-1H-indol-1-yl)ethanamine] |  | 0.895 ± 0.154
29 | CCN(CC)CCn1cc(C(=O)C(N)=O)c2cc(-c3ccc(Oc4ccc(F)cc4)cc3)ccc21 [Compound 178, 2-(1-(2-Diethylamino)ethyl-5-(4-(4-fluorophenoxy)phenyl)-1H-indol-3-yl)-2-oxoacetamide] |  | 1.03 ± 0.076
30 | CCN(CC)CCn1cc(C[C@H](O)CO)c2cc(-c3ccc(Oc4ccc(F)cc4)cc3)ccc21 [Compound 182] | 1.06 ± 0.026 | 
31 | NC(=O)Cn1cc(C[C@H](O)CO)c2cc(-c3ccc(Oc4ccc(F)cc4)cc3)ccc21 [Compound 186, (S)-2-(3-(2,3-Dihydroxypropyl)-5-(4-(4-fluorophenoxy)phenyl)-1H-indol-1-yl)acetamide] | 0.717 ± 0.042 | 
32 | N#Cc1ccc(Oc2ccc(-n3cc(C(O)(C(N)=O)C(F)(F)F)c4ccccc43)cc2)cc1C(F)(F)F (centres unmarked) [Compound 192, 2-(1-(4-(4-Cyano-3-(trifluoromethyl)phenoxy)phenyl)-1H-indol-3-yl)-3,3,3-trifluoro-2-hydroxypropanamide] |  | 0.475 ± 0.065
